The values that follow come from patent US20140206708A1, “COMPOSITION FOR OPHTHALMIC ADMINISTRATION” (Rigel Pharmaceuticals, Inc., priority 2013, published 2014).

Series [1] is described as follows: Aqueous solubility. It counts as physicochemical.
The conditions of series [2]: solution pH 8, stored at room temperature for approximately 16 months.

Values after ≈ are worked out from the molar mass of the structure shown.

By solubility is commonly meant the concentration that dissolves in the medium under given conditions. A high value points to much dissolved substance. In series [1] (water (aqueous), room temperature), `C#CCOc1ccc(Nc2nc(Nc3ccc(C)c(S(N)(=O)=O)c3)ncc2F)cc1` [Compound II, N2-(3-aminosulfonyl-4-methylphenyl)-5-fluoro-N4-[4-(prop-2-ynyloxy)phenyl]-2,4-pyrimidinediamine] came in with a solubility of about 0.9 µg/mL (≈ 2.11 µM).
Regarding `C#CCOc1ccc(Nc2nc(Nc3ccc(C)c(S(=O)(=O)NC(=O)CC)c3)ncc2F)cc1.C[N+](C)(C)CCO` [VII, 5-Fluoro-N2-[4-methyl-3-(N-propionylaminosulfonyl)phenyl]-N4-[4-(2-propynyloxy)phenyl]-2,4-pyrimidinediamine Choline Salt], the “compound I choline salt converted to compound II” value in series [2] is listed as “about 5%”. Further, the “aqueous solubility compared with free acid form and compound II” value in series [1] is “significantly higher aqueous solubility than both its free acid form and compound II”. Further, the solubility in water entry in series [1] (in water) was “about 9.1 mg/mL”.
